Laboratory results taken from ChEMBL document CHEMBL1201862, “PubChem BioAssay data set” (2004).
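Assay format: 96-well plates, 48-hour exposure. At the GI50, growth is halved.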 The source made the active and inactive calls. No stated cut-off is given here; in the data, active = GI50 up to about 1.1 µM and inactive = higher.

How the values were obtained:
Assay in all cases: growth of human tumour cells (NCI), 48 h
[1] = test system: UO-31
[2] = test system: DLD-1
[3] = test system: HCT-15
[4] = test system: 786-0
[5] = test system: SR
[6] = test system: M14
[7] = test system: OVCAR-8
[8] = test system: SF-268
[9] = test system: SK-MEL-2
[10] = test system: M19-MEL
[11] = test system: HCT-116
[12] = test system: DMS-273
[13] = test system: K562
[14] = test system: SN12C
[15] = test system: UACC-62
[16] = test system: DMS-114
[17] = test system: KM12
[18] = test system: HCC 2998
[19] = test system: SF-295
[20] = test system: CCRF-CEM
[21] = test system: EKVX
[22] = test system: XF498
[23] = test system: CAKI-1
[24] = test system: KM-20L2
[25] = test system: A549
[26] = test system: NCI-H460
[27] = test system: SK-OV-3
[28] = test system: COLO 205
[29] = test system: A498
[30] = test system: TK-10
[31] = test system: NCI-H23
[32] = test system: U-251
[33] = test system: NCI-H522
[34] = test system: UACC-257
[35] = test system: OVCAR-3
[36] = test system: SNB-78
[37] = test system: HOP-92
[38] = test system: OVCAR-5
[39] = test system: LOX IMVI
[40] = test system: SNB-19
[41] = test system: ACHN
[42] = test system: NCI-H226
[43] = test system: SK-MEL-28
[44] = test system: SF-539
[45] = test system: SW-620
[46] = test system: Malme-3M
[47] = test system: OVCAR-4
[48] = test system: IGROV-1
[49] = test system: SK-MEL-5
[50] = test system: LXFL 529
[51] = test system: MOLT-4
[52] = test system: SNB-75
[53] = test system: RPMI-8226
[54] = test system: HL-60
[55] = test system: RXF 393
[56] = test system: HOP-18
[57] = test system: HT-29
[58] = test system: HOP-62

`O=C(O)C1Cc2[nH]c3ccccc3c2C2CCCC12` (stereo unspecified) was tested, and the GI50 [1] was > 100 µM (inactive), the GI50 [2] was > 100 µM (inactive) and the GI50 [3] was over 100 µM. The GI50 [4] was > 100 µM (inactive), the GI50 [5] was > 100 µM (inactive) and the GI50 [6] was > 100 µM (inactive). The GI50 [7] was > 100 µM (inactive), the GI50 [8] was > 100 µM (inactive) and the GI50 [9] was > 100 µM (inactive). For the same compound, the GI50 [10] was > 100 µM (inactive), the GI50 [11] was > 100 µM (inactive) and the GI50 [12] was > 100 µM (inactive). The GI50 [13] was > 100 µM (inactive), the GI50 [14] was > 100 µM (inactive) and the GI50 [15] was > 100 µM (inactive). For the same compound, the GI50 [16] was > 100 µM (inactive), the GI50 [17] was > 100 µM (inactive) and the GI50 [18] was > 100 µM (inactive). For the same compound, the GI50 [19] was > 100 µM (inactive), the GI50 [20] was > 100 µM (inactive) and the GI50 [21] was > 100 µM (inactive). The GI50 [22] was > 100 µM (inactive), the GI50 [23] was > 100 µM (inactive) and the GI50 [24] was > 100 µM (inactive). For the same compound, the GI50 [25] was > 100 µM (inactive), the GI50 [26] was > 100 µM (inactive) and the GI50 [27] was > 100 µM (inactive). For the same compound, the GI50 [28] was > 100 µM (inactive), the GI50 [29] was > 100 µM (inactive) and the GI50 [30] was > 100 µM (inactive). For the same compound, the GI50 [31] was > 100 µM (inactive), the GI50 [32] was > 100 µM (inactive) and the GI50 [33] was > 100 µM (inactive). For the same compound, the GI50 [34] was > 100 µM (inactive), the GI50 [35] was > 100 µM (inactive) and the GI50 [36] was > 100 µM (inactive). For the same compound, the GI50 [37] was > 100 µM (inactive), the GI50 [38] was > 100 µM (inactive) and the GI50 [39] was > 100 µM (inactive). The GI50 [40] was > 100 µM (inactive), the GI50 [41] was > 100 µM (inactive) and the GI50 [42] was 5.15 µM (inactive). The GI50 [43] was > 100 µM (inactive), the GI50 [44] was > 100 µM (inactive) and the GI50 [45] was > 100 µM (inactive). For the same compound, the GI50 [46] was > 100 µM (inactive), the GI50 [47] was > 100 µM (inactive) and the GI50 [48] was > 100 µM (inactive). For the same compound, the GI50 [49] was > 100 µM (inactive), the GI50 [50] was > 100 µM (inactive) and the GI50 [51] was > 100 µM (inactive). For the same compound, the GI50 [52] was 46.3 µM (inactive).
For `CN(C)C(=C1C(Br)=C(Br)C(Br)=C1Br)N(C)C`, the GI50 [1] was > 100 µM (inactive), the GI50 [2] was > 100 µM (inactive) and the GI50 [3] was over 100 µM. The GI50 [4] was > 100 µM (inactive), the GI50 [53] was 22.7 µM (inactive) and the GI50 [6] was > 100 µM (inactive). The GI50 [7] was > 100 µM (inactive), the GI50 [8] was > 100 µM (inactive) and the GI50 [9] was > 100 µM (inactive). For the same compound, the GI50 [10] was > 100 µM (inactive), the GI50 [12] was > 100 µM (inactive) and the GI50 [13] was 30.4 µM (inactive). The GI50 [14] was > 100 µM (inactive), the GI50 [15] was > 100 µM (inactive) and the GI50 [16] was > 100 µM (inactive). For the same compound, the GI50 [17] was > 100 µM (inactive), the GI50 [18] was > 100 µM (inactive) and the GI50 [19] was > 100 µM (inactive). For the same compound, the GI50 [54] was 46.3 µM (inactive), the GI50 [20] was 26.3 µM (inactive) and the GI50 [21] was > 100 µM (inactive). For the same compound, the GI50 [23] was > 100 µM (inactive), the GI50 [24] was > 100 µM (inactive) and the GI50 [25] was > 100 µM (inactive). The GI50 [26] was > 100 µM (inactive), the GI50 [27] was > 100 µM (inactive) and the GI50 [55] was > 100 µM (inactive). The GI50 [56] was > 100 µM (inactive), the GI50 [28] was > 100 µM (inactive) and the GI50 [30] was > 100 µM (inactive). For the same compound, the GI50 [31] was > 100 µM (inactive), the GI50 [32] was > 100 µM (inactive) and the GI50 [33] was 17.5 µM (inactive). For the same compound, the GI50 [34] was > 100 µM (inactive), the GI50 [35] was > 100 µM (inactive) and the GI50 [37] was > 100 µM (inactive). For the same compound, the GI50 [57] was > 100 µM (inactive), the GI50 [38] was > 100 µM (inactive) and the GI50 [39] was 21.5 µM (inactive). For the same compound, the GI50 [58] was > 100 µM (inactive), the GI50 [41] was > 100 µM (inactive) and the GI50 [43] was > 100 µM (inactive). The GI50 [44] was > 100 µM (inactive), the GI50 [45] was 83.8 µM (inactive) and the GI50 [46] was > 100 µM (inactive). For the same compound, the GI50 [47] was > 100 µM (inactive), the GI50 [48] was > 100 µM (inactive) and the GI50 [49] was > 100 µM (inactive). The GI50 [50] was 75 µM (inactive), the GI50 [51] was > 100 µM (inactive) and the GI50 [52] was 38.6 µM (inactive).
`CCC1=NC(CO)[C@H](c2ccccc2)O1` (stereo partly specified) was tested, and the GI50 [2] was > 100 µM (inactive), the GI50 [3] was over 100 µM and the GI50 [4] was > 100 µM (inactive). For the same compound, the GI50 [5] was > 100 µM (inactive), the GI50 [53] was > 100 µM (inactive) and the GI50 [7] was > 100 µM (inactive). The GI50 [8] was > 100 µM (inactive), the GI50 [9] was > 100 µM (inactive) and the GI50 [10] was > 100 µM (inactive). For the same compound, the GI50 [11] was > 100 µM (inactive), the GI50 [12] was > 100 µM (inactive) and the GI50 [13] was > 100 µM (inactive). For the same compound, the GI50 [14] was > 100 µM (inactive), the GI50 [15] was > 100 µM (inactive) and the GI50 [16] was > 100 µM (inactive). The GI50 [17] was > 100 µM (inactive), the GI50 [19] was > 100 µM (inactive) and the GI50 [21] was > 100 µM (inactive). The GI50 [22] was > 100 µM (inactive), the GI50 [23] was > 100 µM (inactive) and the GI50 [24] was > 100 µM (inactive). The GI50 [25] was > 100 µM (inactive), the GI50 [26] was > 100 µM (inactive) and the GI50 [55] was > 100 µM (inactive). For the same compound, the GI50 [56] was > 100 µM (inactive), the GI50 [28] was > 100 µM (inactive) and the GI50 [29] was > 100 µM (inactive). The GI50 [30] was > 100 µM (inactive), the GI50 [31] was > 100 µM (inactive) and the GI50 [32] was > 100 µM (inactive). For the same compound, the GI50 [34] was > 100 µM (inactive), the GI50 [35] was > 100 µM (inactive) and the GI50 [36] was > 100 µM (inactive). The GI50 [37] was > 100 µM (inactive), the GI50 [57] was > 100 µM (inactive) and the GI50 [38] was > 100 µM (inactive). The GI50 [39] was > 100 µM (inactive), the GI50 [58] was > 100 µM (inactive) and the GI50 [40] was > 100 µM (inactive). The GI50 [41] was > 100 µM (inactive), the GI50 [43] was > 100 µM (inactive) and the GI50 [44] was > 100 µM (inactive). For the same compound, the GI50 [45] was > 100 µM (inactive), the GI50 [46] was > 100 µM (inactive) and the GI50 [47] was > 100 µM (inactive). The GI50 [48] was > 100 µM (inactive), the GI50 [49] was > 100 µM (inactive) and the GI50 [52] was > 100 µM (inactive).
